Assay results reported in patent US20240100062A1, “Methods of Treatment With an Iboga Alkaloid” (priority 2022, published 2024).
“Also recorded” adds a separate entry of the source.

Key:
[1] = tested on: special operations veterans; assay: Hopkins Verbal Learning Test-Revised (HVLT-R), Example 1 study; type: in vivo, human
[2] = tested on: special operations veterans; assay: MADRS depression rating scale, Example 1 study; type: in vivo, human; details: for MADRS score, mean: p(FDR) <0.001
Procedure: (§1) With subjects in the fasting state, an intravenous infusion of 1 gram of magnesium sulfate was administered 1-2 hours prior to treatment. […] Medical staff (MD, RN, or EMT) were onsite at a ratio of at least 1 staff per 2 patients throughout treatment for monitoring and management, but no specific coaching or psychological support was provided during treatment.
(§2) Post treatment, each subject was assessed four days after treatment, one month after treatment, and, if willing, one year after treatment. The post-treatment assessments conducted at four days and at one month after treatment included neuropsychological testing, measures of PTSD, depression, anxiety, mystical experiences, functional imaging and EEG. Post-treatment assessments conducted at one year after treatment included PTSD, depression, and anxiety measures.
(§3) Clinician administered scales included CAPS-5 (Clinician-administered PTSD Scale for DSM-5), which is a gold standard assessment of PTSD symptom severity; MADRS (Montgomery-Asberg Depression Rating Scale), a measure for depressive symptom severity; and Hamilton-Anxiety Rating Scale (HAM-A) (Shear, M. K. et al., Depress. Anxiety 13, 166-178 (2001)) a measure for anxiety symptom severity; SCID-5 (Structured Clinical Interview for DSM-5) Overview for a historical and environmental context of symptom presentation; MINI DSM-5 (Mini International Neuropsychiatric Interview from DSM-5) for a structured psychodiagnostics assessment; BAT-L (Boston Assessment of TBI—Lifetime) for a lifetime history of TBI and blast exposure; and Ohio State University TBI Identification Method (Short Form) for a lifetime history of TBI. MADRS testing provides an indication of depressive symptoms, CAPS-5 provides an indication of PTSD and SIGH-A provides an indication of anxiety. Collectively these overlap to provide indication of mood, concentration, sleep and tension.
The MADRS is a clinician—administered 10-item scale assessing the severity of depression symptoms. Items are rated on a scale of 0 (no abnormality) to 6 (severe) (Montgomery, S. A. et al., Br. J. Psychiatry J. Ment. Sci. 134, 382-389 (1979)). A total score of 0-6 indicates no depression, 7-19 mild depression, 20-34 moderate depression, 35-59 severe depression, […] (Miller, M. J., J. Affect. Disord. 77, 255-260 (2003)).

[3] = tested on: special operations veterans; assay: Hamilton Anxiety Rating Scale (HAM-A), Example 1 study; type: in vivo, human; details: for HAM-A score, mean: p(FDR) <0.001
Procedure: as §1, §2, §3
To assess anxiety symptoms, the Hamilton Anxiety Rating Scale was used. This scale includes 14-items assessing both psychic and physical symptoms of anxiety. Items are rated on a scale from 0 (no symptoms) to 4 (severe symptoms). Total score ranges were: no or minimal anxiety (≤7), mild (8-14), moderate (15-23), and severe anxiety symptoms (≥24) (Matza et al., Int. J Methods Psychiatr. Res. 19, 223-232 (2010)).

[4] = tested on: special operations veterans; assay: Safety monitoring (adverse events, QTc by ECG), Example 1 study; type: in vivo, human
Procedure: as §1

[5] = tested on: special operations veterans; assay: Predicted brain age from MRI (brain age model); type: in vivo, human
From the text: A predictive model of normal aging defined using machine learning in healthy individuals, based on magnetic resonance imaging-derived estimates of gray matter and white matter (Id.) was applied to the MRI images from the subjects enrolled in the study of Example 1. […] There was a significant reversal of brain age from baseline to one month after treatment. The mean decrease in brain age was 1.3 years (corrected p=0.03).
At baseline, the brain age estimate for the 24 subjects was 40.89 years. […] The average decrease in brain age from baseline one month after treatment was 1.4 years.

[6] = tested on: special operations veterans; assay: Lag projection analysis of BOLD fMRI; type: in vivo, human; details: baseline vs about four days post treatment; left orbitofrontal gyrus (lateral and anterior) and inferior frontal gyrus (orbital and triangular); fwec p<0.001
Procedure: fMRI data was also analyzed to inspect activity patterns as a function of time. A lag projection analysis measures temporal dynamics of blood oxygen level-dependent (BOLD) fMRI (Mitra et al., PNAS, E2235-E2244, 2015). Directed flow transfer of information is analyzed by comparing lag-correlation shift between voxel pairs. The average lag structure of a voxel indicates relative earliness or lateness in the brain, as a measure of whether the region is a source or sink of information. A paired T-test of fMRI images at baseline and about four days post treatment was done. […] These regions are involved in language formation, response inhibition and regulating goal-directed behavior. Slowing may reflect sustained processing and influence over the brain across long time scales.

[7] = tested on: humans; details: in vivo; cited from earlier work

**Q.** What does the source list for `CCC1CC2CC3c4[nH]c5ccc(OC)cc5c4CCN(C2)C13` (stereo not drawn) [ibogaine, Ibogaine]?
**A.** Verbal Memory (HVLT-R), mean ± SD ([1]; 1-wk post, baseline 47.4 ± 10.1, p(FDR) 0.583): 49.0 ± 9.2 T score; Verbal Memory (HVLT-R), D ([1]; baseline vs 1-month post): 0.47; Verbal Memory (HVLT-R), D ([1]; baseline vs 1-wk post): 0.17; Verbal memory improvement ([1]; one-month follow-up): significant improvement; MADRS score, mean ([2]; 1-mo. post, SD 5.9, baseline 25.2 ± 8.7, N 28, only participants with mild TBI): 3.6; MADRS score, mean ([2]; 1-mo. post, SD 7.7, baseline 31.3 ± 6.5, N 15, only participants meeting diagnostic criteria per MINI at baseline): 6.4; MADRS % Reduction vs Baseline, mean ([2]; 1-mo. post, SD 17%, only participants with mild TBI): 87% ±; MADRS % Reduction vs Baseline, mean ([2]; 1-mo. post, SD 21%, only participants meeting diagnostic criteria per MINI): 81% ±; MADRS score, mean ([2]; 1-wk post, SD 3.6, baseline 31.3 ± 6.5, N 15, only participants meeting diagnostic criteria per MINI at baseline): 3.6; MADRS score, mean ([2]; 1-wk. post, SD 3.2, baseline 25.2 ± 8.7, N 28, only participants with mild TBI): 2.7; MADRS % Reduction vs Baseline, mean ([2]; 1-wk. post, SD 11%, only participants meeting diagnostic criteria per MINI): 89% ±; MADRS % Reduction vs Baseline, mean ([2]; 1-wk. post, SD 24%, only participants with mild TBI): 87% ±; MADRS, D ([2]; Baseline vs 1-mo. post, only participants with mild TBI): 2.70; HAM-A score, mean ([3]; 1-mo. post, SD 4.6, baseline 20.7 ± 8.6, N 28, only participants with mild TBI): 3.7; HAM-A score, mean ([3]; 1-mo. post, SD 6.3, baseline 23.8 ± 7.6, N 14, only participants meeting diagnostic criteria per MINI at baseline): 5.1; HAM-A % Reduction vs Baseline, mean ([3]; 1-mo. post, SD 21%, only participants with mild TBI): 82% ±; HAM-A % Reduction vs Baseline, mean ([3]; 1-mo. post, SD 23%, only participants meeting diagnostic criteria per MINI): 80% ±; HAM-A score, mean ([3]; 1-wk post, SD 3.4, baseline 23.8 ± 7.6, N 14, only participants meeting diagnostic criteria per MINI at baseline): 4.2; HAM-A score, mean ([3]; 1-wk. post, SD 3.3, baseline 20.7 ± 8.6, N 28, only participants with mild TBI): 3.3; HAM-A % Reduction vs Baseline, mean ([3]; 1-wk. post, SD 14%, only participants meeting diagnostic criteria per MINI): 82% ±; HAM-A % Reduction vs Baseline, mean ([3]; 1-wk. post, SD 19%, only participants with mild TBI): 82% ±; Participants treated for insomnia ([4]; 1 participant, during oneirogenic effects): 3%; Participants treated for hypertension ([4]; 2 participants, during oneirogenic effects): 7%; Participants treated for anxiety ([4]; 3 participants, during oneirogenic effects): 10%; Participants treated for nausea ([4]; 7 participants, during oneirogenic effects): 23%; Participants treated for headache ([4]; 12 participants, during oneirogenic effects): 40%; Transient cerebellar signs such as mild ataxia and intention tremor ([4]; 30 participants): All participants experienced transient cerebellar signs; Unexpected or serious adverse events ([4]; 30 participants, 12.1±1.2 mg/kg oral ibogaine with IV magnesium sulfate, 1.2 mg/kg): no unexpected or serious treatment-emergent side effects; also recorded: no unexpected or serious adverse events; QTc prolongation ([4]; continuous 5-lead ECG 12-16 hours after ibogaine): no instances of a concerning prolongation of QTc; Mean decrease in brain age ([5]; baseline to one month after treatment, corrected p=0.03 (FIG. 9A)): 1.3 years; Estimated brain age compared to accelerated intermittent theta burst stimulation (aiTBS) ([5]; one-month post treatment (FIG. 9D)): provided a reducing in estimated brain age one-month post treatment compared to aiTBS; Brain age contrast Estimate, Baseline & 1 wk. vs 1 mo. ([5]; weights .5-.5-1, Sig 0.008, 95% 0.352 to 2.087): 1.220 years; Lag structure change (BOLD fMRI) [6]: relative slowing; Incidence of cardiac arrest in people treated [7]: Approximately 1 in 300 people; Neurotoxicity reported in humans [7]: only transient ataxia has been reported in humans; QT interval prolongation [7]: instances of subsequent fatal arrhythmia
